The results in this text go back to patent publication EP4389827A1, “AMINOGLYCOSIDE-LINKED PHOTOSENSITIZERS” (Centre National de la Recherche Scientifique, priority 2022, dated 2024).

For one assay, the system named is B. subtilis 168. Nature of the assay: Minimal inhibitory concentration (EUCAST), with or without 660 nm irradiation. Format: cell-based, Bacillus subtilis. Particulars: Bacillus subtilis, 168, light or radiation study, 18 h. As for the experimental part:
(§1) Acinetobacter baumannii DSM30011, Bacillus subtilis 168, Pseudomonas aeruginosa PA14, P. aeruginosa PAO1, Staphylococcus aureus Mu50, S. aureus Newman and S. aureus USA300 were all grown in MHB-CA at 37°C with an agitation of 180 rpm. Candida albicans SC5314 was grown in yeast extract peptone dextrose broth at 35°C with an agitation of 180 rpm.
(§2) Minimal inhibitory concentrations (MICs) for selected bacteria were investigated according to the EUCAST guidelines. Serial dilutions of the compounds, photosensitizers and aminoglycosides were made in MHB-CA in 384-well plates. Stationary-phase cells were diluted in MHB-CA to have a final concentration of 5.5 × 10^5 CFU/mL. Samples were incubated in the dark for 20 minutes at 37°C and either irradiated at 660 nm for 30 minutes with a LED device or kept in the dark. Irradiated samples received a total of 168 mJ/mm^2. Plates were then incubated at 37°C for 18 hours and MICs were evaluated visually. Triplicates were done and the synergy, or fractional inhibitory concentration (FIC), was calculated according to Doern et al., 2014: FIC = (MIC of AB)/(MIC of A) + (MIC of AB)/(MIC of B) [formula]

Assay [1] deals with P. aeruginosa PAO1. The description is as above. Format: cell-based, Pseudomonas aeruginosa. Particulars: Pseudomonas aeruginosa, PAO1, light or radiation study, 18 h. As for the experimental part: as §1, §2
The test system of assay [2] is P. aeruginosa PA14. The assay is described as above. To be noted: Pseudomonas aeruginosa, PA14, light or radiation study, 18 h. Format: cell-based, Pseudomonas aeruginosa. As for the experimental part: as §1, §2
The subject of assay [3] is S. aureus Mu50. The assay is described as above. Format: cell-based. To be noted: Staphylococcus aureus, MU50, light or radiation study, 18 h. As for the experimental part:
as §1, §2

Assay [4] has as its system S. aureus USA300. The description is as above. Format: cell-based. To be noted: Staphylococcus aureus, USA300, light or radiation study, 18 h, aminoglycoside alone, irradiation state not given. As for the experimental part:
as §1, §2

For assay [5], the system named is S. aureus Mu50. Nature of the assay: Antibacterial photodynamic therapy on biofilm cells. Format: cell-based, Staphylococcus aureus. Particulars: - irradiation. An excerpt:
(§3) Compounds Neo-Ce6 and Tobra-Ce6 caused strong drop in survival for biofilms of A. baumannii […], P. aeruginosa species and S. aureus Mu50. […] Tobra-Ce6 had its strongest effect on A. baumannii DSM30011 with more than 4 log10 CFU/mL drop in survival and a drop of 1.7 log10 CFU/mL in P. aeruginosa PA14. Table 2: aPDT results for biofilm cells expressed in drop in the log10 CFU/mL compared to controls.

For assay [6], the system named is S. aureus Newman. The assay is described as above. Format: cell-based, Staphylococcus aureus. To be noted: - irradiation.
From the text: as §3

For assay [7], the system named is S. aureus USA300. Described as above. Format: cell-based, Staphylococcus aureus. Particulars: - irradiation.
From the text: as §3

Assay [8] concerns S. aureus Mu50. The experiment in a line: Antibacterial photodynamic therapy on planktonic cells (CFU count). Format: cell-based, Staphylococcus aureus. Particulars: non-irradiated samples (Figure 3b). As for the experimental part:
as §1
(§4) Cells were brought to stationary phase by incubating them in MHB-CA for at least 18 hours at 37°C with 180 rpm and diluted to an optical density of 1.0 just before the experiment. Cells were incubated for 20 minutes with either the compounds, photosensitizers alone, or aminoglycosides alone. Unless stated otherwise, a concentration of 10 µM was used for all experiments and samples were irradiated for 30 minutes at 660 nm with the Solis-660C lamp from ThorLabs, receiving a total of 5 J/mm^2. After illumination, cells were washed with phosphate-buffered saline (PBS) 1X, serially diluted and plated on Mueller-Hinton agar. The next day, colony forming units (CFUs) were counted.

Assay [9] concerns S. aureus Newman. Described as above. The assay is classed as cell-based, Staphylococcus aureus. To be noted: non-irradiated samples (Figure 3d). As for the experimental part:
as §1, §4

For assay [10], the system named is A. baumannii DSM30011. The experiment in a line: Minimal inhibitory concentration (EUCAST), with or without 660 nm irradiation. The assay is classed as cell-based, Acinetobacter baumannii. Particulars: Acinetobacter baumannii, DSM30011, light or radiation study, 18 h. As for the experimental part: as §1, §2
The test system of the next assay is E. coli pET-29. The description is as above. Particulars: Escherichia coli, PET29, light or radiation study, 18 h; aminoglycoside alone, irradiation state not given. Format: cell-based. As for the experimental part: as §2
The test system of the next assay is K. pneumoniae LM21. The description is as above. Format: cell-based. To be noted: Klebsiella pneumoniae, LM21, light or radiation study, 18 h. As for the experimental part:
as §2

The subject of the next assay is E. coli KanR. The assay is described as above. The assay is classed as cell-based. Particulars: Escherichia coli, light or radiation study, 18 h. As for the experimental part: as §2
For another assay, the system named is C. albicans SC5314. The experiment in a line: Minimal inhibitory concentration, with or without 660 nm irradiation. Particulars: Candida albicans, SC5314, light or radiation study, 18 h. Format: cell-based. As for the experimental part:
as §1, §2

The subject of assay [11] is S. aureus Newman. The experiment in a line: Minimal inhibitory concentration (EUCAST), with or without 660 nm irradiation. The assay is classed as cell-based, Staphylococcus aureus. To be noted: Staphylococcus aureus, NEWMAN, light or radiation study, 18 h. As for the experimental part:
as §1, §2

Assay [12] relates to P. aeruginosa PAO1. The experiment in a line: Antibacterial photodynamic therapy on biofilm cells. Format: cell-based, Pseudomonas aeruginosa. Particulars: - irradiation.
From the text: as §3

Assay [13] concerns P. aeruginosa PA14. Described as above. Format: cell-based, Pseudomonas aeruginosa. To be noted: - irradiation.
From the text: as §3

Assay [14] concerns S. aureus USA300 persister cells. The experiment in a line: Antibacterial photodynamic therapy on persister cells. Format: cell-based, Staphylococcus aureus. To be noted: persister cells (6 hours, 2 mM neomycin); aPDT at 10 µM, 5 J/mm^2 (Figure 6a). As for the experimental part:
Persister plateau and AG concentration varied from one species to another. In S. aureus USA300, a stable plateau was obtained following 6 hours of incubation with 2 mM of neomycin. […] This control is crucial to make sure that a persister state has been achieved. […] As there are no significant differences between irradiated and non-irradiated samples, however, the production of singlet oxygen may not be the factor leading to cell death. In S. aureus Newman, cells were treated for 24 hours with 1 mM of neomycin. […] Although this synergy does exist, like in S. aureus USA300, there is no significant difference in survival for irradiated and non-irradiated samples, except for Ce6.

Assay [15] has as its system A. baumannii DSM30011. The experiment in a line: Antibacterial photodynamic therapy on biofilm cells. The assay is classed as cell-based, Acinetobacter baumannii. To be noted: - irradiation.
From the text: as §3

For assay [16], the system named is P. aeruginosa PAO1. The experiment in a line: Antibacterial photodynamic therapy on planktonic cells (CFU count). Format: cell-based. Particulars: Pseudomonas aeruginosa, PAO1, light or radiation study, aminoglycoside alone, Figure 5d (without irradiation), read-out: drop of survival. As for the experimental part:
as §1, §4

[17] abbreviates: aminoglycoside alone, irradiation state not given, read-out: MIC.

Where two headings read alike, the source gives them in different places. A value given as a limit tells only on which side of the number the result lay.

For orientation: MIC means the lowest concentration found to suppress growth. For `NC[C@@H]1O[C@H](O[C@H]2[C@@H](O)[C@H](O[C@@H]3[C@@H](O)[C@H](N)C[C@H](N)[C@H]3O[C@H]3O[C@H](CN)[C@@H](O)[C@H](O)[C@H]3N)O[C@@H]2CO)[C@H](N)[C@@H](O)[C@@H]1O` [Neomycin, neomycin], the MIC in the assay with B. subtilis 168 is 0.4 µM; with P. aeruginosa PAO1 [1], 16 µM; in the assay on P. aeruginosa PA14 [2] it was 4 µM; in the assay on S. aureus Mu50 [3], above 512 µM; in the assay on S. aureus USA300 [4], 4 µM; in the assay with A. baumannii DSM30011 [10], 8 µM. The MIC in the assay with E. coli pET-29 is 128 to 256 µM; in the assay on K. pneumoniae LM21, 2 µM; in the assay with E. coli KanR, above 512 µM; with C. albicans SC5314 it was above 512 µM; with S. aureus Newman [11] it was 8 µM. Moreover, the “drop in the log10 CFU/mL compared to controls” value in the assay on S. aureus Mu50 [5] was 0.18 log10 CFU/mL; in the assay with S. aureus Newman [6], -0.07 log10 CFU/mL; in the assay with S. aureus USA300 [7], 0.16 log10 CFU/mL; with P. aeruginosa PAO1 [12], 0.28 log10 CFU/mL; in the assay with P. aeruginosa PA14 [13], 0.01 log10 CFU/mL; in the assay with A. baumannii DSM30011 [15], 1.33 log10 CFU/mL. Moreover, the “drop in CFUs (in words)” value in the assay with S. aureus Mu50 [8] and in the assay on S. aureus Newman [9] was “does not lead to significantly less survival” throughout. The “persister cell survival (in words)” value in assay [14] is on record as “no significant drop in survival”.

For `NC[C@H]1O[C@H](O[C@H]2[C@H](O)[C@@H](O[C@H]3O[C@H](CO)[C@@H](O)[C@H](N)[C@H]3O)[C@H](N)C[C@@H]2N)[C@H](N)C[C@@H]1O` [Tobramycin, tobramycin], the log reduction at 10 µM in the assay with P. aeruginosa PAO1 [16] was around 2.3. Also, the MIC in the assay on P. aeruginosa PAO1 [1] (setting [17]) is 0.5 to 1 µM; with P. aeruginosa PA14 [2] (setting [17]), 1 to 2 µM; with S. aureus Mu50 [3] (setting [17]), above 512 µM; in the assay on S. aureus USA300 [4] it was 4 µM; in the assay on A. baumannii DSM30011 [10] (setting [17]) it was 4 to 8 µM; with S. aureus Newman [11] (setting [17]) it was 4 µM. Moreover, the “drop in the log10 CFU/mL compared to controls” value in the assay on S. aureus Mu50 [5] is given as -0.02 log10 CFU/mL; in the assay on S. aureus Newman [6] it was 0.25 log10 CFU/mL; with S. aureus USA300 [7], 0.26 log10 CFU/mL; in the assay on P. aeruginosa PAO1 [12], 0.39 log10 CFU/mL; in the assay with P. aeruginosa PA14 [13] it was 0.79 log10 CFU/mL; in the assay on A. baumannii DSM30011 [15] it was 0.93 log10 CFU/mL.
